Experimental data from patent US8927498B2, “Compositions and methods useful in enhancement of memory” (The Translational Genomics Research Institute, priority 2010, dated 2015).
Entries after “also recorded” stand apart in the source; their conditions may differ.

Key:
[1] = system: hippocampal expression of candidate genes; assay: hippocampal expression of candidate genes, Illumina RatRef-12 expression BeadChip; type: in vivo, rat
Excerpt: (§1) Following sacrifice, the left hippocampus was utilized for genome-wide expression profiling. […] These included Adcyap1 with fold change (FC) of 1.5, and p=0.029, Tiam1 with FC of −1.5 and p=0.028, and Filip1 with FC of −1.75 and p=0.032 (Table 1). The RT-PCR validation of the fold change of FILIP1 and Tiam1 is shown in Table 2 and Table 3, respectively.

[2] = system: seventeen-month-old Fischer-344 male rats (aged rat model of cognitive decline); assay: water-escape radial arm maze, spatial working memory; type: in vivo; details: 17-month-old Fischer-344 male rats, 1 mg/kg/day, vs vehicle (saline)
Procedure: In one embodiment of the present disclosed invention, the transduction complex comprises a fusion peptide including a TAT protein transduction domain and residues surrounding two known serine phosphorylation targets (Ser159 and Ser163) within MARCKS (SEQ ID NO: 3). The compound was administered to seventeen-month-old rats and behavioral spatial working memory of the rats was assessed by behavior testing. […] Such assays include, without limitation, the Morris water maze and the radial arm water maze, plus maze. For example, when employing the Morris water maze, a rat is trained to swim to a submerged platform. The rat can then be treated with an agent at a particular dose for a particular duration. Following treatment, the mean escape latency (i.e., time to find platform) is measured and compared to the mean escape latency of a control. […] Following treatment, the ability of the rat to remember a newly-learned path is measured and compared to that of a control. […] In the water Plus Maze test, the variables measured include the percentage of time spent in the open and closed areas of the maze, the latency to leave the central platform, the total number of crossings between the various open and closed areas of the maze, and the number of crossings into the open areas of the maze divided by the total number of crossings. […]

[3] = system: FILIP1; assay: RT-PCR validation of FILIP1 (normalized to GAPDH); type: in vivo, rat; details: n = 9; vehicle 1.28
Excerpt: as §1

[4] = system: Tiam1; assay: RT-PCR validation of Tiam1 normalized to GADPH; type: in vivo, rat; details: n = 9; vehicle 1.02
Excerpt: as §1

[5] = hippocampus, treated vs. vehicle rats, Mann-Whitney
[6] = hippocampus, treated vs. vehicle rats, T-Test
[7] = left hippocampus, genome-wide expression profiling

SEQ ID NO: 1: fusion peptide including a TAT protein transduction domain and residues surrounding two known serine phosphorylation targets (Ser159 and Ser163) within MARCKS (YGRKKRRQRRRCKRFSFKKSFKLSGFSFKK; TAT MARCKS fusion)
Fold Change Filip1 [1, 5]: −1.747
Fold Change Gna1 [1, 5]: −1.534
Fold Change Ptpro [1, 5]: −1.708
Fold Change Tiam1 [1, 5]: −1.510
Fold Change Tp53i11_predicted [1, 5]: −1.581
Fold Change Adcyap1 [1, 6]: 1.554
Fold Change Filip1 [1, 6]: −1.747
Fold Change LOC501145 [1, 6]: 1.566
Fold Change Perp_predicted [1, 6]: −1.647
Fold Change Tiam1 [1, 6]: −1.499
Fold Change Tp53i11_predicted [1, 6]: −1.554
fold change (FC) Adcyap1 [1, 7]: 1.5
fold change (FC) Filip1 [1, 7]: −1.75
fold change (FC) Tiam1 [1, 7]: −1.5
working memory performance in water-escape radial arm maze ([2]; n=9): better able to process multiple items of information; also recorded: enhanced working memory performance
working memory performance in water-escape radial arm maze ([2]; n=9, listed as MARCKS peptide decoy): better performance in the radial arm water maze
RT-PCR FILIP1 Average (normalized to GAPDH) [3]: 1.20
RT-PCR Tiam1 Average normalized to GADPH [4]: 0.89
